Assay results published in patent US20240374692A1, “A NOVEL ACYLATED INSULIN ANALOG” (SUNSHINE LAKE PHARMA CO., LTD., priority 2021, published 2024).
Read-outs that look alike come from different tables or passages of the source.

Legend:
[1] = rat, in vivo, iv, 10 nmol/kg
[2] = mouse, in vivo, sc, 10 nmol/kg
[3] = rat, in vivo, sc, 10 nmol/kg
[4] = system: STZ-induced type I diabetes mellitus (T1DM) C57BL/6 mice; assay: Hypoglycemic effect, repeated administration (four times) to STZ-induced T1DM C57BL/6 mice (Example 5); assay type: in vivo; parameters: key to random blood glucose: random blood glucose in mmol/L, Mean±SEM; conditions: for random blood glucose: 1400 nmol/Kg S.C. four times
Procedure: SPF grade C57BL/6 mice were reared in a suitable rearing box in a barrier environment, with a rearing temperature of 20-26° C., a humidity of 40-70%, a time between day and night of 12 h/12 h, and the mice had free access to standard food and autoclaved sterilization water. After a 3-day quarantine period and a 2-day acclimation period, the mice were fasted for 12 h, and the mice were injected intraperitoneally with streptozotocin solution (STZ, 13 mg/mL, in citrate buffer) or citrate buffer at 130 mg/kg (control group). 3 Days and 7 days after administration of streptozotocin, random blood glucose and fasting blood glucose were detected, and the random blood glucose value above 25 mmol/L and fasting blood glucose value above 11.1 mmol/L were selected as T1DM model mice for follow-up experiments. On the day before administration, random blood glucose was monitored and mice were weighed. Mice were divided into 4 groups according to random blood glucose and body weight.
Subcutaneous administration (S.C.) was used to administer the corresponding vehicle or drug, once every 4-5 days, for a total of 4 administrations. During the experiment, the animals were allowed to eat and drink water freely. The random blood glucose before the first administration, and 0.25, 0.5, 1, 2, 4, 6, 8, 10, 24, 48, 72, and 96 h after administration were assessed, as well as the random blood glucose before the second, third and fourth administration, and 1, 2, 4, 6, 8, 24, 48, 72, 96 and 120 h after administration.
(§1) All raw data were entered into Excel files and expressed as Mean±SEM. Statistical analysis of data was performed using Graphpad Prism 7.0 software, one-way or two-way ANOVA comparison method, and P<0.05 was used as the criterion for significant differences.

insulin receptor B = target: T1, insulin receptor B (Homo sapiens, UniProt P06213); assay: Insulin receptor B autophosphorylation in transfected cells (Cisbio Phospho-IR beta Tyr1150/1151 kit); assay type: cell-based; conditions: for Relative HI activity: relative to human insulin; for Relative 0% HSA activity: 1.5% HSA relative to 0% HSA
T1 construct: expressed in transfected cells
T1 sequence (P06213 28-758 limits assumed): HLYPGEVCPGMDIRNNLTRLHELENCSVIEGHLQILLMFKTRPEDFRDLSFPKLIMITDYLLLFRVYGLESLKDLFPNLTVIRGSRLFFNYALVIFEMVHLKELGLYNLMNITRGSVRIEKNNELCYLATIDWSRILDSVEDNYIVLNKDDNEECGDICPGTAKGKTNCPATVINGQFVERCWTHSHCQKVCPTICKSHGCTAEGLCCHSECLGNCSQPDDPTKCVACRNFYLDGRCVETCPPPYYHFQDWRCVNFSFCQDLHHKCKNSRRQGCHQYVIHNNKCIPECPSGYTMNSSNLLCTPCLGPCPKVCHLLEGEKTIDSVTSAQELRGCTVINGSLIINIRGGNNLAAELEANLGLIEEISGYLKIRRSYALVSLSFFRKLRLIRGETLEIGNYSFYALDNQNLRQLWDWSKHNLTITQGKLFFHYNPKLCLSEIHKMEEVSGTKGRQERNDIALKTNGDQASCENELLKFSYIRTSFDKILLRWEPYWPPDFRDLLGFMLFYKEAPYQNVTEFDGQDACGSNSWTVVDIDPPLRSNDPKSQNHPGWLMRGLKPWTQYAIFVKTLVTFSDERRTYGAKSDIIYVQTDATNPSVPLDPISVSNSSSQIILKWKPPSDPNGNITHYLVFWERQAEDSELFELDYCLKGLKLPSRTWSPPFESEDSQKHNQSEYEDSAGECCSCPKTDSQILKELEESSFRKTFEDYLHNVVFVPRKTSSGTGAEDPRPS
T1 sequence (P06213 763-1382 partner limits assumed): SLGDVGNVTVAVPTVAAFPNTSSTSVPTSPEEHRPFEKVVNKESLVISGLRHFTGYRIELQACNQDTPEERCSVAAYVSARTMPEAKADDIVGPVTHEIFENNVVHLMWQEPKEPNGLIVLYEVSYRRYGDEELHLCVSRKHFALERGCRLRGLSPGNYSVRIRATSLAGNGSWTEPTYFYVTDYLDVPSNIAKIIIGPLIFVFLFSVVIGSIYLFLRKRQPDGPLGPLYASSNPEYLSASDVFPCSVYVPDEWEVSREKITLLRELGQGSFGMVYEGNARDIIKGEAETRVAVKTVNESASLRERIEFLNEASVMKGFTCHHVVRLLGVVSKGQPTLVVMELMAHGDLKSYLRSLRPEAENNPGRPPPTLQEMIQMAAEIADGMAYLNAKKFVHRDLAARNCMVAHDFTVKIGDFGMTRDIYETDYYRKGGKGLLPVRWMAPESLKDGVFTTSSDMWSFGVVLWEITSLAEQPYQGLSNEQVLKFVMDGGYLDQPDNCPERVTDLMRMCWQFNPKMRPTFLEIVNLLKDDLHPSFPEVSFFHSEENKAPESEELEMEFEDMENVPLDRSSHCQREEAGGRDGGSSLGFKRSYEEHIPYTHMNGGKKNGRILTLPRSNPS
Procedure: The phosphorylation level of insulin receptor B was detected by Cisbio's Phospho-IR beta (Tyr1150/1151) kit method to evaluate the biological activity of insulin. The cells were seeded into a 96-well plate overnight, and after the serum in the medium was removed, 40 μl of serum-free medium was added to culture for about 4 h. Then a dilution series of insulin derivatives were prepared with blank solution (0.6% casein, 0.06 mg/mL EDTA, 1×DPBS) and incubated with cells in the 96-well plate for 5 min in a CO2 incubator (37° C., 5% CO2). The liquid in the 96-well plate was poured off, 100 µL of a mixture of lysis buffer (2% Triton X-100, 150 mM NaCl, 50 mM HEPES, pH=7) and inhibitor (Blocking Reagent in the kit) was added to lyse the cells, then the plate was shaken at 350 rpm for 30 min. Relative activity (in percent (%)) was assessed by measuring insulin receptor phosphorylation levels in the supernatant after cell lysis and fitting a curve to the data using nonlinear regression in Graphpad Prism 5 software. Related assays were also used, in which the blank solution also contained 1.5% HSA to simulate physiological conditions. Changes in the phosphorylation levels of the insulin-activated insulin receptors of the invention were detected as an indirect reflection of the albumin binding activity.

normal C57BL/6 mice = assay: Hypoglycemic effect, single subcutaneous administration to normal C57BL/6 mice; assay type: in vivo; parameters: blood glucose: unit not given here; conditions: for blood glucose / effective blood glucose control time / time after administration at which blood glucose reached the lowest level / time after administration at which blood glucose returned to normal: Degludec 200 nmol/Kg, others 1400 nmol/Kg; for blood glucose: Mean ± SEM, n = 6; for blood glucose compared with the control group: 1 h after single S.C. administration
Procedure: SPF grade C57BL/6 mice were reared in a suitable rearing box in a barrier environment, with a rearing temperature of 20-26° C., a humidity of 40-70%, a time between day and night of 12 h/12 h, and the mice had free access to standard food and autoclaved sterilization water. After a 3-day quarantine period and a 2-day acclimation period, random blood glucose was measured and mice were weighed. Mice were divided into 6 groups according to random blood glucose and body weight.
Single subcutaneous administration (S.C.) was used to administer the corresponding vehicle or drug. The control group was administered the vehicle PBS without fasting during the whole process, and the animals were allowed to eat and drink freely. Random blood glucose values of C57 mice were measured before administration and at 0.25, 0.5, 1, 2, 4, 6, 8, 10, 24, 48, 54, 72 and 96 hours after administration.
as §1

[5] = 0 h (before administration), single S.C.

Substance “A14E, B16E, B25H, B29K (N^ε-eicosanedioyl-gGlu-2xOEG), DesB30 human insulin analog [Insulin-a1, reference compound]” has an AUClast [1] of 7550 ng·h/mL, a T1/2 [1] of 15.3 ± 4.8 h and an AUClast [2] of 10000 ng·h/mL. For the same substance, the T1/2 [2] was 14.3 h, the AUClast [3] was 10300 ng·h/mL and the MRTINF_obs [3] was 34.1 h. The T1/2 [3] was 21 h, the “time after administration at which blood glucose reached the lowest level” value ([4]; 1400 nmol/Kg S.C., Insulin-a1 each administration, Insulin-a3 first and second administrations) was 24 h and the “time after administration at which blood glucose reached the normal level” value ([4]; 1400 nmol/Kg S.C., after each administration) was 72 h. It also gave a random blood glucose ([4]; Day 0 (1st administration)) of 33.3 ± 0.1, a random blood glucose ([4]; Day 1) of 22.5 ± 9.6 and a random blood glucose ([4]; Day 4 (2nd administration)) of 31.1 ± 2.3. The random blood glucose ([4]; Day 5) was 15.6 ± 6.6, the random blood glucose ([4]; Day 9 (3rd administration)) was 28.4 ± 4.9 and the random blood glucose ([4]; Day 10) was 12.2 ± 7.9. For the same substance, the random blood glucose ([4]; Day 14 (4th administration)) was 28.4 ± 5.9, the random blood glucose ([4]; Day 18) was 26.2 ± 5.7 and the “time the effective glucose control effect can be maintained” value ([4]; repeated administration, C57BL6 mice modeled by STZ) was 3 days/time. The EC50 (insulin receptor B; 0% HSA) was 230 nM, the “Relative HI activity” value (insulin receptor B; 0% HSA) was 0.54% and the EC50 (insulin receptor B; 1.5% HSA) was 5020 nM. For the same substance, the “Relative 0% HSA activity” value (insulin receptor B) was 4.58%, the “Relative HI activity” value (insulin receptor B; 1.5% HSA) was 0.05% and the blood glucose (normal C57BL/6 mice; [5]) was 7.8 ± 1.1. For the same substance, the blood glucose (normal C57BL/6 mice; 0.25 h after single S.C.) was 8.8 ± 1.4, the blood glucose (normal C57BL/6 mice; 0.5 h after single S.C.) was 6.6 ± 0.7 and the “blood glucose compared with the control group” value (normal C57BL/6 mice) was “decreased significantly”. It also gave a blood glucose (normal C57BL/6 mice; 1 h after single S.C.) of 5.6 ± 0.7, a blood glucose (normal C57BL/6 mice; 2 h after single S.C.) of 4.4 ± 0.7 and a blood glucose (normal C57BL/6 mice; 4 h after single S.C.) of 3.6 ± 0.7. It also gave a blood glucose (normal C57BL/6 mice; 6 h after single S.C.) of 3.8 ± 0.4, a blood glucose (normal C57BL/6 mice; 8 h after single S.C.) of 3.6 ± 0.7 and a blood glucose (normal C57BL/6 mice; 10 h after single S.C.) of 3.4 ± 0.7. The blood glucose (normal C57BL/6 mice; 24 h after single S.C.) was 2.9 ± 0.7, the blood glucose (normal C57BL/6 mice; 48 h after single S.C.) was 4.9 ± 1.5 and the blood glucose (normal C57BL/6 mice; 72 h after single S.C.) was 7.3 ± 1.3. The blood glucose (normal C57BL/6 mice; 96 h after single S.C.) was 7.8 ± 0.6, the “effective blood glucose control time” value (normal C57BL/6 mice; single S.C.) was 72 h and the “time after administration at which blood glucose reached the lowest level” value (normal C57BL/6 mice; single S.C.) was 24 h. The “time after administration at which blood glucose returned to normal” value (“time after administration … to normal” below) (normal C57BL/6 mice; single S.C.) was 48 h.

With “A14E, B16E, B25H, B29K(N(ε)-COOH(CH2)16CO-L-Lys-CO(CH2)2CO—(OEG)2), desB30 human insulin analog [Insulin-a4]” the blood glucose (normal C57BL/6 mice; [5]) was 8.0 ± 1.3, the blood glucose (normal C57BL/6 mice; 0.25 h after single S.C.) was 9.0 ± 1.9 and the blood glucose (normal C57BL/6 mice; 0.5 h after single S.C.) was 6.2 ± 1.6. The “blood glucose compared with the control group” value (normal C57BL/6 mice) was “decreased significantly”, the blood glucose (normal C57BL/6 mice; 1 h after single S.C.) was 5.0 ± 0.5 and the blood glucose (normal C57BL/6 mice; 2 h after single S.C.) was 4.8 ± 0.5. For the same substance, the blood glucose (normal C57BL/6 mice; 4 h after single S.C.) was 3.9 ± 0.5, the blood glucose (normal C57BL/6 mice; 6 h after single S.C.) was 3.8 ± 1.1 and the blood glucose (normal C57BL/6 mice; 8 h after single S.C.) was 3.2 ± 0.6. For the same substance, the blood glucose (normal C57BL/6 mice; 10 h after single S.C.) was 3.0 ± 0.6, the blood glucose (normal C57BL/6 mice; 24 h after single S.C.) was 5.3 ± 1.8 and the blood glucose (normal C57BL/6 mice; 48 h after single S.C.) was 8.7 ± 0.9. For the same substance, the blood glucose (normal C57BL/6 mice; 72 h after single S.C.) was 8.0 ± 0.9, the blood glucose (normal C57BL/6 mice; 96 h after single S.C.) was 7.9 ± 1.1 and the “effective blood glucose control time” value (normal C57BL/6 mice; single S.C.) was 48 h. The “time after administration at which blood glucose reached the lowest level” value (normal C57BL/6 mice; single S.C.) was 10 h and the “time after administration … to normal” value (normal C57BL/6 mice; single S.C.) was 48 h.

In the case of insulin degludec [reference compound], the EC50 (insulin receptor B; 0% HSA) is reported as 4.55 nM, the “Relative HI activity” value (insulin receptor B; 0% HSA) is reported as 27.07% and the EC50 (insulin receptor B; 1.5% HSA) is reported as 20.6 nM. The “Relative 0% HSA activity” value (insulin receptor B) was 22.10%, the “Relative HI activity” value (insulin receptor B; 1.5% HSA) was 12.59% and the blood glucose (normal C57BL/6 mice; [5]) was 7.8 ± 0.8. For the same substance, the blood glucose (normal C57BL/6 mice; 0.25 h after single S.C.) was 6.5 ± 1.1, the blood glucose (normal C57BL/6 mice; 0.5 h after single S.C.) was 5.0 ± 0.4 and the “blood glucose compared with the control group” value (normal C57BL/6 mice) was “decreased significantly”. The blood glucose (normal C57BL/6 mice; 1 h after single S.C.) was 4.7 ± 1.1, the blood glucose (normal C57BL/6 mice; 2 h after single S.C.) was 4.4 ± 1.3 and the blood glucose (normal C57BL/6 mice; 4 h after single S.C.) was 5.4 ± 0.6. For the same substance, the blood glucose (normal C57BL/6 mice; 6 h after single S.C.) was 5.4 ± 1.2, the blood glucose (normal C57BL/6 mice; 8 h after single S.C.) was 5.8 ± 0.8 and the blood glucose (normal C57BL/6 mice; 10 h after single S.C.) was 5.7 ± 0.9. It also gave a blood glucose (normal C57BL/6 mice; 24 h after single S.C.) of 8.3 ± 0.9, a blood glucose (normal C57BL/6 mice; 48 h after single S.C.) of 8.0 ± 0.3 and a blood glucose (normal C57BL/6 mice; 72 h after single S.C.) of 8.0 ± 0.8. The blood glucose (normal C57BL/6 mice; 96 h after single S.C.) was 7.9 ± 0.3, the “effective blood glucose control time” value (normal C57BL/6 mice; single S.C.) was 24 h and the “time after administration at which blood glucose reached the lowest level” value (normal C57BL/6 mice; single S.C.) was 2 h. For the same substance, the “time after administration … to normal” value (normal C57BL/6 mice; single S.C.) was 24 h.
